# According to ChEMBL document CHEMBL1201862, “PubChem BioAssay data set” (2004):
# “And” between values parts separate entries of the source, which are not always exact repeats. Equal entries are not always repeated. The source made the active and inactive calls.
# Columns and labels:
# Trypsin = Trypsin (Sus scrofa, UniProt P00761); assay: porcine trypsin inhibitors, dose response, selectivity assay for Rce1 protease inhibitor project, biochemical, quenched peptide fluorescence, cherry-pick (AID 488789)
# CAAX prenyl protease 1 = CAAX prenyl protease 1 (Saccharomyces cerevisiae S288c, UniProt P47154); assay: Ste24 protease inhibitors, dose response, biochemical, S. cerevisiae, plate reader, cherry-pick (AID 488815)
# [1] = biological target: T1, Dual specificity protein phosphatase 3 (Homo sapiens, UniProt P51452); assay: SAR VHR1 Fluorescent Assay for In Vitro dose response studies. [Related pubchem assays (depositor defined):AID1654, AID1661, AID1878, AID1992, AID2004, AID2070, AID2085]; assay type: functional
# [2] = biological target: 26S proteasome non-ATPase regulatory subunit 14 (Homo sapiens, UniProt O00487); assay: inhibition of proteasome subunit RPN11 – biochemical, fluorescence polarization, uHTS hits, confirmation (AID 602368); assay type: functional
# [3] = biological target: T1, Dual specificity protein phosphatase 3; assay: SAR VHR1 absorbance Assay for In Vitro dose response studies. [Related pubchem assays (depositor defined):AID1654, AID1661, AID1878, AID1992, AID2004]
# [4] = biological target: T2, Dual specificity protein phosphatase 6 (Rattus norvegicus, UniProt Q64346); assay: SAR analysis of inhibitors of MKP-3 - Set 2. [Related pubchem assays (depositor defined):AID1055, AID1661, AID425, AID553, AID566]; assay type: functional
# T2 sequence (Q64346 whole entry): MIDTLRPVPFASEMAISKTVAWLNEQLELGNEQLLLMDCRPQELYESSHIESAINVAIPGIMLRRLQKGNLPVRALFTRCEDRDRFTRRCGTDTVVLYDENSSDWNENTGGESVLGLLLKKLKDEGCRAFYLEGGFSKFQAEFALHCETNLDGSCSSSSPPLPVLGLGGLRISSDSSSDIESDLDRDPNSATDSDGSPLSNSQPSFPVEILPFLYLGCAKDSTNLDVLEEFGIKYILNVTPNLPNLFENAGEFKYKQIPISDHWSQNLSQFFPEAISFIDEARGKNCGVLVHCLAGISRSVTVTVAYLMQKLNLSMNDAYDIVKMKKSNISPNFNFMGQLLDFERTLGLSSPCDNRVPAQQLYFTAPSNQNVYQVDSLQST
# [5] = biological target: T1, Dual specificity protein phosphatase 3; assay: SAR VHR1 Fluorescent Assay for In Vitro dose response studies Set 2. [Related pubchem assays (depositor defined):AID1654, AID1661, AID1878]; assay type: functional
# Prothrombin = Prothrombin (Bos taurus, UniProt P00735); assay: thrombin inhibition, dose response, biochemical, fluorescence polarization, uHTS hits (AID 602369); assay type: functional
# [6] = biological target: 72 kDa type IV collagenase (Homo sapiens, UniProt P08253); assay: Dose Response validation of uHTS RPN11 inhibitor hits using a MMP-2 Fluorescence assay.; assay type: functional
# [7] = biological target: T3, Tyrosine-protein phosphatase non-receptor type 7 (Homo sapiens, UniProt P35236); assay: SAR analysis of chemical inhibitors of HePTP using a Fluorescent assay - Set 2. [Related pubchem assays (depositor defined):AID1059, AID1077, AID1661, AID2085, AID521]; assay type: functional
# T3 sequence (P35236 whole entry): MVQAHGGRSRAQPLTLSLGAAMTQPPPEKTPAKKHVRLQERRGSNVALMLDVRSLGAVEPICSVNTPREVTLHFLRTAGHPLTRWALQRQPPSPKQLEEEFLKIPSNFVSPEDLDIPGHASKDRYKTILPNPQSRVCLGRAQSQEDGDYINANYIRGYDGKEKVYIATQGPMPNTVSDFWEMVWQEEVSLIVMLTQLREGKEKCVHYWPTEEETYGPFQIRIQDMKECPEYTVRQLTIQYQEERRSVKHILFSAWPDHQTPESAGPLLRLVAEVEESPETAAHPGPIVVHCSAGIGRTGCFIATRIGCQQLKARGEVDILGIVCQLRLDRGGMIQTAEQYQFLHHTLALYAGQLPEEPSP
# [8] = biological target: T1, Dual specificity protein phosphatase 3; assay: VHR1 phosphatase inhibitors, biochemical (AID 1878)
# [9] = biological target: T2, Dual specificity protein phosphatase 6; assay type: functional
# [10] = biological target: T3, Tyrosine-protein phosphatase non-receptor type 7; assay: redox-dependent HePTP inhibition, mechanism study, biochemical, fluorescence (AID 2068); assay type: functional
# [11] = biological target: T1, Dual specificity protein phosphatase 3; assay: VHR1 phosphatase inhibitors, primary screen, biochemical, absorbance, uHTS (AID 1654)
# [12] = biological target: T2, Dual specificity protein phosphatase 6; assay: MKP-3 phosphatase inhibitors, primary screen, biochemical, rat enzyme, in vitro (AID 425)
# Cytochrome P450 2D6 = Cytochrome P450 2D6 (Homo sapiens, UniProt P10635);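 note: CYP2D6 member of a cytochrome P450 panel assay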
# Cytochrome P450 1A2 = biological target: T4, Cytochrome P450 1A2 (Homo sapiens, UniProt P05177);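 note: PubChem cytochrome P450 panel assay, CYP1A2 panel member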
# T4 sequence (P05177 whole entry): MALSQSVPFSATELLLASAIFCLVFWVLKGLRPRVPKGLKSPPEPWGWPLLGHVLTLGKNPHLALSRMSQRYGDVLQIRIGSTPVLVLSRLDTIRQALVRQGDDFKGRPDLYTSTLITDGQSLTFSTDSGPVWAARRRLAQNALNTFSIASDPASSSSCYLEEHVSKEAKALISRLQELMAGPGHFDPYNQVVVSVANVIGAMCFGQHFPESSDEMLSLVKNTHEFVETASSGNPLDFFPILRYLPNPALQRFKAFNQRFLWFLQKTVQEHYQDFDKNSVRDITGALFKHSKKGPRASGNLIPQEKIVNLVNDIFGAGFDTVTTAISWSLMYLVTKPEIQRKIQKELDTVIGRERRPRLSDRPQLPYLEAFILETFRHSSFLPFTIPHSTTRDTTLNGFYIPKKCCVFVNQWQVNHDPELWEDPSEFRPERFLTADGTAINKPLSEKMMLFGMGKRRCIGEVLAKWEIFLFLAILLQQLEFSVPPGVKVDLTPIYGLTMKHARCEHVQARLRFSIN
# Cytochrome P450 2C9 = Cytochrome P450 2C9 (Homo sapiens, UniProt P11712)
# Cytochrome P450 2C19 = Cytochrome P450 2C19 (Homo sapiens, UniProt P33261); assay: Cytochrome panel assay with activity outcomes. Panel member name: p450-cyp2c19 Compounds with AC50 equal or less than 10 uM are considered active; assay type: functional
# Insulin-degrading enzyme [13] = biological target: T5, Insulin-degrading enzyme (Homo sapiens, UniProt P14735); assay: activators of recombinant IDE enzyme, dose response, counter-screen for IDE activator project, biochemical, fluorescence polarization (AID 588681)
# T5 sequence (P14735 whole entry): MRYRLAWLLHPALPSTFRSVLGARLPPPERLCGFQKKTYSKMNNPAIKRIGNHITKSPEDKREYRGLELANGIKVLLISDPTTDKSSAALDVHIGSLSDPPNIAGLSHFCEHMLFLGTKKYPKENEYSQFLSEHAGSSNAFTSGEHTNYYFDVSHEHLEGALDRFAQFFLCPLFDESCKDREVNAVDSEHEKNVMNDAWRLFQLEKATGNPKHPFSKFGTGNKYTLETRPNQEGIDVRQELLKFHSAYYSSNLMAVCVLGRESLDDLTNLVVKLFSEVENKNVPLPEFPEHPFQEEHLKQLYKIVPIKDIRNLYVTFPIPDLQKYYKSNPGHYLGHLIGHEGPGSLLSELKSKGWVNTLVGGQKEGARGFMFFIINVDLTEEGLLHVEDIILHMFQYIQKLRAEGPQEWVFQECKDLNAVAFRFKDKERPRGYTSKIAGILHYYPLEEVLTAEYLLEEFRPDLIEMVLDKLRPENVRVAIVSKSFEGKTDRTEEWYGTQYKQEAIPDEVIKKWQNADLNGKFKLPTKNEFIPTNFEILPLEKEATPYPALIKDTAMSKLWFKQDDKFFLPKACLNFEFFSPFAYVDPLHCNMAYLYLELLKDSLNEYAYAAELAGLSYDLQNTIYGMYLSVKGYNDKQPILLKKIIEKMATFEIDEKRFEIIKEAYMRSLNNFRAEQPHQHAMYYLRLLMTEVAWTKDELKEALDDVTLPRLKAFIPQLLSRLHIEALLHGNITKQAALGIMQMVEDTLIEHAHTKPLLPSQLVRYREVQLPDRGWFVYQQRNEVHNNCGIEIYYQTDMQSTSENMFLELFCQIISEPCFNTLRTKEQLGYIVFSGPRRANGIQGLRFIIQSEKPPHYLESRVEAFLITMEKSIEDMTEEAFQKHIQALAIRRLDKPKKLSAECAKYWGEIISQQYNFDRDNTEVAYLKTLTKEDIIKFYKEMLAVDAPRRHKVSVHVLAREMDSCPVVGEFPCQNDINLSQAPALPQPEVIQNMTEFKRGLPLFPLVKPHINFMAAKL
# Troponin, cardiac muscle = Troponin, cardiac muscle (Homo sapiens, UniProt P19429+P45379+P63316); assay: Fluorescence-based biochemical high throughput dose response assay for activators of the calcium sensitivity of cardiac Regulated Thin Filaments (RTF). [Related pubchem assays (depositor defined):AID493008, AID493018, AID504382, AID504383]; assay type: protein-complex assay
# Insulin-degrading enzyme [14] = biological target: T5, Insulin-degrading enzyme; assay: activators of endogenous IDE in HEK cells, dose response, cell-based, fluorescence polarization (AID 588439); assay type: functional
# Fibrinogen beta chain [15] = biological target: T6, Fibrinogen beta chain (Homo sapiens, UniProt P02675); assay: Fluorescence polarization-based biochemical high throughput dose response assay to identify inhibitors that disrupt the binding of a cyclic peptide (Tn7) to the fibrin proteolytic product D-Dimer and fragment E complex [DD(E )].
# HEK293 [16] = assay: optical interference in Abeta FP readout, dose response, artefact control for IDE activator project, biochemical, fluorescence polarization (AID 588442); assay type: functional, cell-based; conditions: Homo sapiens
# Fibrinogen beta chain [17] = biological target: T6, Fibrinogen beta chain; assay: Fluorescence polarization-based biochemical high throughput dose response assay to identify inhibitors that disrupt the binding of a cyclic peptide (Tn6) to the fibrin proteolytic product D-Dimer and fragment E complex [DD(E )].
# Keap1/Nrf2 = Keap1/Nrf2 (Homo sapiens, UniProt Q14145); assay: Keap1-Nrf2 protein-protein interaction inhibitors, dose response, biochemical, fluorescence polarization, cherry-picked samples (AID 588683)
# ORF 73 = ORF 73 (Human herpesvirus 8, UniProt O40947); assay: inhibitors of C-LANA binding to LBS DNA, dose response, biochemical, fluorescence polarization, cherry-picked samples (AID 504725); set-up: species or system Human gammaherpesvirus 8;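 note: fluorescence polarization of a labeled DNA duplex reporting LANA DNA binding; potency is for inhibitors that block LANA binding to the DNA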
# HeLa = assay: HeLa cell cytotoxicity, dose response, cytotoxicity control, 24 h, cherry-picked samples (AID 504726); assay type: functional, cell-based; conditions: Homo sapiens;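 note: potency for cytotoxicity as loss of luminescence signal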
# HEK293 [18] = assay: HEK cell cytotoxicity by LDH release, dose response, cytotoxicity control for IDE activator project, fluorescence, HEK cells (AID 588440); assay type: functional, cell-based; conditions: Homo sapiens;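 note: cytotoxicity by LDH release measuring loss of membrane integrity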
# T1 sequence (P51452 whole entry): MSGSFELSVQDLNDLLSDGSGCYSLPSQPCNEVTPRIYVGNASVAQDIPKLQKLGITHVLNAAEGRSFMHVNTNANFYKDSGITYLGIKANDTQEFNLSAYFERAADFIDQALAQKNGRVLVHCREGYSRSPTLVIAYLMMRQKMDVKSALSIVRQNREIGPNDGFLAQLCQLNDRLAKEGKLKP
# Sequence of Cytochrome P450 2C19 (P33261 whole entry): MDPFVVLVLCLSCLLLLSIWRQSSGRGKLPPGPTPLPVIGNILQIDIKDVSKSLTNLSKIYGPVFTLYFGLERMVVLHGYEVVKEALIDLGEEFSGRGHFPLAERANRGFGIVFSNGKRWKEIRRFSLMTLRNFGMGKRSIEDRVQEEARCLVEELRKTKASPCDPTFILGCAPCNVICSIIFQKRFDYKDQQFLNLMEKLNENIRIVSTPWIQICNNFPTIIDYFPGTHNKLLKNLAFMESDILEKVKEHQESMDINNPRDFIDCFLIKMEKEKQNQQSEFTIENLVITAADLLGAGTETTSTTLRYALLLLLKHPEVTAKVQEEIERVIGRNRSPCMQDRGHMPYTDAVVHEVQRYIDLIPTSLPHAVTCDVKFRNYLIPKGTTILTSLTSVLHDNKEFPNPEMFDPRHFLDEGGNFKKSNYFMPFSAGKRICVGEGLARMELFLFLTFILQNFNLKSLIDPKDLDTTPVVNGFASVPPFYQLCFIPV
# T6 sequence (P02675 whole entry, the tested form may be a part): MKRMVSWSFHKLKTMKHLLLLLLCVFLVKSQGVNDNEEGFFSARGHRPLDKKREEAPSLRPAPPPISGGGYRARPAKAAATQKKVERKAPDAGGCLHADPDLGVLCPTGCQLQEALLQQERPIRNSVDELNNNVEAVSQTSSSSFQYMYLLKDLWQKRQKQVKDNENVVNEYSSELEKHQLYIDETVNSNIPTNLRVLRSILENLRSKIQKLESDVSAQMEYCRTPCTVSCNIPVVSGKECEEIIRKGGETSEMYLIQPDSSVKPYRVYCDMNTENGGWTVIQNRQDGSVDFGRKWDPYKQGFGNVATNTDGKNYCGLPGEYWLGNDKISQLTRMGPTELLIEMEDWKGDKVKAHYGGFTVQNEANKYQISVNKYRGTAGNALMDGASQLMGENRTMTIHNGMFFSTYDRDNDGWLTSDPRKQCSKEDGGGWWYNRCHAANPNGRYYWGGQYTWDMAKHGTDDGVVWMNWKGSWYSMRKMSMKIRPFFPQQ
# Sequence of Cytochrome P450 2D6 (P10635 whole entry): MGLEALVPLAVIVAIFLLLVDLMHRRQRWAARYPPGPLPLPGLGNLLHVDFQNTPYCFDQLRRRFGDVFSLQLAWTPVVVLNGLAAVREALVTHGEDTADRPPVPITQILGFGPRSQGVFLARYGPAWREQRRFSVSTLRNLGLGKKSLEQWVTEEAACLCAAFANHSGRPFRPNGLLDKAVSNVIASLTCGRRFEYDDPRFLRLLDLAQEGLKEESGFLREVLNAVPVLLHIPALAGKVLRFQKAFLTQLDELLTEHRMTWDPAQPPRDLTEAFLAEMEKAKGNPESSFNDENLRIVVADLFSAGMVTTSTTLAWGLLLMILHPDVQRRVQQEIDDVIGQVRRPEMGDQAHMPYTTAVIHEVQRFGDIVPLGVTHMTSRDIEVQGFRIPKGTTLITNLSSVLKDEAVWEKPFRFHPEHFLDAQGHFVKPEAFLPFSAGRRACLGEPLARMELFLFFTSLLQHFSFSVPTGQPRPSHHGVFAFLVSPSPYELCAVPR
# Sequence of 26S proteasome non-ATPase regulatory subunit 14 (O00487 whole entry): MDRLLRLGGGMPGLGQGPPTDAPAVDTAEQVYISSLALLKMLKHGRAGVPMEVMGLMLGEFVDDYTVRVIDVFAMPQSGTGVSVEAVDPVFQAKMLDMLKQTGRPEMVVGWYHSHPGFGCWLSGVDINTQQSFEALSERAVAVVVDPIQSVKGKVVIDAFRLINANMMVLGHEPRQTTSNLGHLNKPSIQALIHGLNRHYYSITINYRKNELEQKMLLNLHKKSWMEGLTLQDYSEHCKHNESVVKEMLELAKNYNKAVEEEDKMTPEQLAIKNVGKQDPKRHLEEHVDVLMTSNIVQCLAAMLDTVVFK
# Sequence of Cytochrome P450 2C9 (P11712 whole entry): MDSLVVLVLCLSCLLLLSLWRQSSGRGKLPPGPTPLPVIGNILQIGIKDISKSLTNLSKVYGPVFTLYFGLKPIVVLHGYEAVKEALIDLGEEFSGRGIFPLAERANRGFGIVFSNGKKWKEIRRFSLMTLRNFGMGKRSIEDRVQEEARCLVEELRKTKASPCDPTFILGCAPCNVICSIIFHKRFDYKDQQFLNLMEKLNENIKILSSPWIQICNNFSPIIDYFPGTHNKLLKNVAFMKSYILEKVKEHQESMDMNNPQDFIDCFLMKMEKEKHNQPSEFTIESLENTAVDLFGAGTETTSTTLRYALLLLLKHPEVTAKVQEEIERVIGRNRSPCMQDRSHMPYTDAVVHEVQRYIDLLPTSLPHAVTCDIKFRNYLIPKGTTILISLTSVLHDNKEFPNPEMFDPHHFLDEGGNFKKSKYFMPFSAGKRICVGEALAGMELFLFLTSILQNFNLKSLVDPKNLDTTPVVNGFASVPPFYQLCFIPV
# Sequence of 72 kDa type IV collagenase (P08253 whole entry): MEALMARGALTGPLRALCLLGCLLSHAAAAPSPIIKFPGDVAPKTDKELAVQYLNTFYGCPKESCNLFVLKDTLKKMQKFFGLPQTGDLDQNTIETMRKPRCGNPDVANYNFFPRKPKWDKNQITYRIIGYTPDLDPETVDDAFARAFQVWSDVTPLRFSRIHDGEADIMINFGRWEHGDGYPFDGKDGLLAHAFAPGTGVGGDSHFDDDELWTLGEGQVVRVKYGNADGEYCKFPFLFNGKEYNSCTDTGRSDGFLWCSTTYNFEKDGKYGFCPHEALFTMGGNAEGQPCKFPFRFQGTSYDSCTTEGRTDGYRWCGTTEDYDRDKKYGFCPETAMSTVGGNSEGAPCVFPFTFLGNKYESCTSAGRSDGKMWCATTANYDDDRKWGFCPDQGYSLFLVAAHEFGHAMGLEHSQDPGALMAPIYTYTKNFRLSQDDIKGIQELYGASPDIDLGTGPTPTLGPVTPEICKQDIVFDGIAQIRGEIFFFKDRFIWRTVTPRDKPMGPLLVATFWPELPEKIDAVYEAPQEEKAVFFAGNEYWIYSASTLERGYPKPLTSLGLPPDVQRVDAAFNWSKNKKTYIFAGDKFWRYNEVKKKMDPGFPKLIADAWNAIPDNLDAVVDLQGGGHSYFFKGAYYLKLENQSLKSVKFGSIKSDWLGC
# Sequence of CAAX prenyl protease 1 (P47154 whole entry): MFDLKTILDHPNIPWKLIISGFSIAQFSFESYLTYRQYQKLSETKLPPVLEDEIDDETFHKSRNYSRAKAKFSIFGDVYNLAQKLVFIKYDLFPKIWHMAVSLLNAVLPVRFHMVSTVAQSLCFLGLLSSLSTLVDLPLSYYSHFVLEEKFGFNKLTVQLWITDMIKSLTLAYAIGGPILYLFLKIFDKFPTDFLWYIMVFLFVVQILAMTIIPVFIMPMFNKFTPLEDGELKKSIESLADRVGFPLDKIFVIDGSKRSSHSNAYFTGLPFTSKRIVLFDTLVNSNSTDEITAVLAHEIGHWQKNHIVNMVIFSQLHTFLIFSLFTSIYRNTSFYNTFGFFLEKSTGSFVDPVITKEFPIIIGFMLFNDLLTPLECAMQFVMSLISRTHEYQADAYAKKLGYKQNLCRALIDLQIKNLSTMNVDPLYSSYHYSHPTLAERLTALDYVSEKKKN
# Sequence of Trypsin (P00761 whole entry): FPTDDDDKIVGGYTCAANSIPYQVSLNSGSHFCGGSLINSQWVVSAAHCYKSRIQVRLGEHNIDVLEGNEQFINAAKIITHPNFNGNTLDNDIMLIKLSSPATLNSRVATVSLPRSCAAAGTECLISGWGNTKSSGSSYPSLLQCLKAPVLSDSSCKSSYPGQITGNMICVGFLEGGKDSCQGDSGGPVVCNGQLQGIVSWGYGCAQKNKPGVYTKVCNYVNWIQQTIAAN
# Sequence of ORF 73 (O40947 whole entry): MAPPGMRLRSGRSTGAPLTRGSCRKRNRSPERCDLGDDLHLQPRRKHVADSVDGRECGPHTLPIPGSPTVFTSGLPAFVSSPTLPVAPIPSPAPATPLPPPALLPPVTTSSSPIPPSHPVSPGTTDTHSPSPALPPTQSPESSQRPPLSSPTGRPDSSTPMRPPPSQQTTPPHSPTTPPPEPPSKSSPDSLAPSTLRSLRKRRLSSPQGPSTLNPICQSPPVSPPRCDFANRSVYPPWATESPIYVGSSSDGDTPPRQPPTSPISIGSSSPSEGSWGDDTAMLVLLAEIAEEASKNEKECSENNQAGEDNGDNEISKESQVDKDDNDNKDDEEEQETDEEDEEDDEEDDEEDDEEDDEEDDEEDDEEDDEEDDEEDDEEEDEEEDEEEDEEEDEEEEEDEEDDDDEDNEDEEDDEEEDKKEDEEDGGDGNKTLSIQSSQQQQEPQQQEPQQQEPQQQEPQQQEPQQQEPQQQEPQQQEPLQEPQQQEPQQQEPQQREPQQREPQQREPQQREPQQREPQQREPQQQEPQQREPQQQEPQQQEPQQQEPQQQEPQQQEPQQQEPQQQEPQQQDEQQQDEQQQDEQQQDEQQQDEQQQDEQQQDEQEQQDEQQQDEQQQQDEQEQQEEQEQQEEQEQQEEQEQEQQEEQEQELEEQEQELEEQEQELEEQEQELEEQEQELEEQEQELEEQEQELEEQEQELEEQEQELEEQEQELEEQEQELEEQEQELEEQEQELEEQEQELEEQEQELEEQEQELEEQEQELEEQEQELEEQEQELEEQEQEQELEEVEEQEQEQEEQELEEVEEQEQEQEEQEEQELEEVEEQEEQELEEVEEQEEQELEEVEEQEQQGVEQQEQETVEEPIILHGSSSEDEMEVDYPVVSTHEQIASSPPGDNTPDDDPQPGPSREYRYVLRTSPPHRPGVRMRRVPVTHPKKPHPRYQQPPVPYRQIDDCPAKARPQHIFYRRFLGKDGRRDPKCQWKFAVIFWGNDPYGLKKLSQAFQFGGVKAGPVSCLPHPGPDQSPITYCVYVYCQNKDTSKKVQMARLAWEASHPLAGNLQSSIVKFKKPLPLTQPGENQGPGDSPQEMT
compound,measurement,setting,value
COc1ccccc1-c1cc(C(=O)O)c2c(=O)n(C)c(=O)n(Cc3ccccc3)c2n1,AC50,Trypsin,6.03 µM (active)
same,AC50,CAAX prenyl protease 1,16.7 µM (active)
O=C(O)c1ccc(NC(=S)NC(=O)c2ccc(-c3ccc(Br)cc3)o2)cc1,IC50,[1],3.63 µM (active)
same,IC50,[2],15.2 µM (active)
same,IC50,[3],3.35 µM (active)
same,IC50,[4],> 100 µM (inactive)
same,IC50,[5],226 nM (active)
same,IC50,Prothrombin,60.7 µM (active)
same,IC50,[6],3.68 µM (active)
same,IC50,[7],314 nM (active)
same,IC50,[8],1.88 µM (active)
same,IC50,[9],55.8 µM (active)
same,IC50,[10],227 nM (active)
same,IC50,[11],6.72 µM (active)
same,IC50,[12],76.7 µM (active)
Cc1nc2n(c(=O)c1CCN1CCC(c3noc4cc(F)ccc34)CC1)CCCC2 [RISPERIDONE],AC50,Cytochrome P450 2D6,3.16 µM (active) and 7.94 µM (active)
same,AC50,Cytochrome P450 1A2,inactive
same,AC50,Cytochrome P450 2C9,inactive
same,AC50,Cytochrome P450 2C19,inactive
same,AC50,Cytochrome P450 2C19; read-out: AC50,1.58 µM (inconclusive)
COc1ccc2ccccc2c1C(O)c1nccn1C (stereo not given),EC50,Insulin-degrading enzyme [13],> 54.7 µM (inactive)
same,EC50,"Troponin, cardiac muscle",7.99 µM (active)
same,EC50,Insulin-degrading enzyme [14],> 54.7 µM (inactive)
same,IC50,Fibrinogen beta chain [15],> 83.3 µM (inactive)
same,EC50,HEK293 [16],> 54.7 µM (inactive)
same,IC50,Fibrinogen beta chain [17],13.1 µM (inactive)
same,AC50,Keap1/Nrf2,1.45 µM (active)
same,AC50,ORF 73,3.41 µM (active)
same,AC50,HeLa,297 µM (active)
same,IC50,HEK293 [18],> 89.2 µM (inactive)
